What was measured:
[1] = test system: alcoholic hepatitis; conditions: human clinical studies; cited from earlier work
[2] = test system: liver injury and fibrosis; conditions: several animal models; cited from earlier work
[3] = Encapsulation efficiency of rolipram in FLVs; assay type: physicochemical; conditions: FLVs 10 mg/mL lipid, rolipram 0.75 mg/mL, diluted 5 or 10 times
Experimental: FIGS. 5A-C show the encapsulation efficiency percent of rolipram when 10 (A), 12.5 (B) and 15 mg/mL of FLV lipid (C) was hydrated with buffer containing 0.75 mg/mL of rolipram and diluted in water five or 10 times. The percentage of free rolipram in buffer was calculated by measuring the amount of free drug in buffer after FLVs in solution were filtered out. More than 50% of drug remained encapsulated with either of the dilutions over time. The amount of rolipram associated with FLVs appeared to fluctuate over time but it stabilized at the end of […]. FLVs=fusogenic vesicles.
After dilution the rolipram EE % of FLVs was similar when either excipient or no excipient was utilized. FLVs=fusogenic lipid vesicles, SOA=Sucrose octaacetate, SAIB=acetate isobutyrate.
To evaluate the ability of the FLVs to retain rolipram in an aqueous system, 0.75 mg/mL of rolipram was loaded into the lipid bilayer and internal liquid compartment of FLVs using four concentrations of lipid: 5, 10, 12.5, and 15 mg/ml. The rolipram encapsulation efficiency was quantified.
To evaluate the effect of dilution on encapsulation efficiency of FLVs-rolipram, different concentrations of FLV lipid (10, 12.5 and 15 mg/ML) were hydrated with the same amount of rolipram (0.75 mg/mL) and then diluted in water 5 and 10 times. Rolipram levels in the external buffer compartment were measured over a 90 min period. […]

[4] = test system: mouse aortic endothelial cells (MAECs); experiment: Fusion rate of rolipram-loaded vesicles to MAECs; assay type: cell-based
From the text: FIGS. 8A-B show the fusion rate of FLVs-Rolipram to RAW cells and mouse aortic endothelial cells (MAECs) in the presence or absence of excipients in the vehicle. Using fluorescent-labeled FLVs and a Nanoparticle Tracking Analysis instrument to quantify FLV numbers, the fusion rate of vesicles to RAW cells was quantified over time. (A) Lipid vesicles formulated with DOPC/POPA (3:2) loaded with rolipram (DOPC:POPA-R) fused to RAW cells at a faster rate than DOPC vesicles loaded with rolipram (DOPC). […] FLVs=fusogenic lipid vesicles, SOA=Sucrose octaacetate, SAIB=acetate isobutyrate.
Studies quantifying the fusion rate of vesicles loaded with rolipram to RAW or mouse aortic endothelial cells (MAECs) were performed. In the first experiment, the fusion rate of lipid vesicles to RAW cells using a highly fusogenic vesicle formulated with DOPC/POPA was compared to less fusogenic vesicle formulated with DOPC (FIG. 8A). […] In the second experiment, the fusion rate of FLVs to MAECs using the excipients sucrose octaacetate (SOA) or SAIB and the same vesicle lipid formulations as in the experiment above were performed. […] Also, SOA an excipient used to enhance the stability of FLVs-rolipram during storage appears to augment the fusion rate of FLVs.

[5] = test system: TNF; experiment: LPS mediated TNF expression in ethanol treated cells; assay type: cell-based; conditions: data not shown
From the text: Studies in monocytes have shown that cAMP plays an important role in regulating TNF expression, and that the elevation of cellular cAMP suppresses TNF production. Therefore, the instant inventors evaluated (1) the effects of chronic ethanol exposure on the cellular levels of cAMP, and (2) TNF expression in monocytes in vitro and in rat primary hepatic Kupffer cells obtained from a clinically relevant enteral alcohol feeding model of alcoholic liver disease (ALD). […] Consistent with these decreased cAMP levels, ethanol led to an increase in LPS-inducible TNF mRNA expression (FIG. 2) and TNF protein, without any change in the TNF mRNA stability (data not shown). Enhancement of cellular cAMP with dbcAMP abrogated LPS mediated TNF expression in ethanol treated cells (data not shown).

[6] = test system: TNF; experiment: LPS-stimulated TNF expression in human PBMCs pre-treated with rolipram; assay type: cell-based
Experimental: PBMCs isolated from a healthy individual were pre-treated with rolipram (1, 5, and 10 μM) for 30 minutes and further stimulated with LPS (1 μg/ml) for 6 hours. Cell-free supernatants were analyzed for TNF expression by ELISA. Rol=rolipram. TNF=tumor necrosis factor-alpha, FLVs=fusogenic lipid vesicles.
The effect of chronic ethanol exposure on PDE4 gene expression and activity in human THP-1 and mouse RAW macrophages was evaluated next, as a mechanism for the decreased intracellular cAMP levels and the increased LPS-stimulated TNF.^4 PDE4 (predominantly present in monocytes) degrades and inactivates cAMP, with PDE4B playing a critical role in LPS signaling. It was shown that chronic alcohol increased LPS-inducible PDE4B mRNA expression (FIG. 2).

[7] = test system: α2-adrenoceptor-mediated xylazine/ketamine-induced anesthesia; experiment: Duration of xylazine/ketamine anesthesia (behavioral correlate of emesis); assay type: in vivo, male C57BL/6 mice; conditions: free rolipram IV, mean of the 3 groups (1.6, 3.3 and 6.6 mg/kg bw); paired control 75.1±4.7 min
Experimental: FLVs-Rol=Fusogenic lipid vesicles-rolipram.
Safety pharmacology studies were conducted to determine the dose-response relationship of adverse effects observed by rolipram. The primary side effect of rolipram is the inhibition of PDE4 activity in the CNS, which leads to emesis in humans. The mechanism of the emetic response associated with PDE4 inhibitors is thought to produce a pharmacological response analogous to that of presynaptic α2-adrenoceptor inhibition, by elevating intracellular levels of cAMP in noradrenergic neurons. Consequently, PDE4 inhibitors remove an inhibitory mechanism that modulates the release of mediators (5-HT, substance P, noradrenaline) involved in the onset of the emetic reflex. […]
Since rodents are a non-vomiting species, examining rolipram-induced side effects in rodents is particularly difficult.^34-36 To circumvent this problem, a behavioral correlate of emesis model in mice was utilized.^35 In this model, rolipram is used to reverse the duration of α2-adrenoceptor-mediated xylazine/ketamine-induced anesthesia, which is temporally quantified by the return of the righting reflex. […] After 15 min, the mice were placed on a controlled heating pad in the dorsal recumbent position and the duration of anesthesia was determined by timing the return of the righting reflex. […]

[8] = test system: cholestatic liver injury and fibrosis; conditions: rat, in vivo; cited from earlier work
[9] = test system: TNF production in RAW 264.7 cells; experiment: RAW cell assay: LPS-induced TNF production (ELISA); assay type: cell-based, mouse; conditions: LPS 100 ng/mL 18 h, SAIB 0.5 mg/mL, FLVs 10 mg/mL lipid
Experimental: Cells were treated with SAIB (0.5 mg/mL), FLVs (10 mg/mL of lipid) with SAIB (FLV-SAIB) or FLVs-rolipram 0.75 mg/mL (FLV-Rol) without SAIB and stimulated with LPS (100 ng/mL) for 18 h. The effect of SAIB was evaluated by quantifying TNF production using an ELISA kit. SAIB alone appears to exert a beneficial effect, and FLVs with SAIB have a greater beneficial effect. FLVs=fusogenic lipid vesicles, LPS=endotoxin, SAIB=acetate isobutyrate.
Cells were treated with 0.73 mg/mL rolipram (Rol), FLVs only, or 0.73 mg/mL of FLVs-rolipram (FLVs-Rol) and stimulated with LPS (100 ng/mL) for 24 h. Control cells received treatment but no LPS. TNF in media was measured using an ELISA kit. UT=untreated cells, FLVs=fusogenic vesicles, LPS=endotoxin.
The effect of adding SAIB (0.5 mg/mL) to the vehicle was tested in vitro using RAW cells pulsed with LPS (100 ng/mL) and evaluated for TNF production. Rolipram (0.75 mg/mL) encapsulated in of 10 mg/mL of lipid without SAIB was used as a control.
An in vitro screening assay to evaluate the effectiveness of the FLVs-rolipram formulations was developed. The assay uses a murine macrophage cell line (RAW 264.7 cells), which produces high levels of TNF in response to LPS stimulation. […] After 24 h, TNF protein was measured in cell free supernatant by ELISA kit (FIG. 14).

In the case of `CC(=O)CCCCn1c(=O)c2c(ncn2C)n(C)c1=O` [Pentoxifylline], the “mortality in patients with AH” value [1] is given as “decreased mortality” and the “liver injury and fibrosis” value [2] is given as “attenuate liver injury and fibrosis”.
For `CC(=O)OC[C@H]1O[C@@](COC(C)=O)(O[C@H]2O[C@H](COC(C)=O)[C@@H](OC(C)=O)[C@H](OC(C)=O)[C@H]2OC(C)=O)[C@@H](OC(C)=O)[C@@H]1OC(C)=O` [SOA, sucrose octaacetate], the “effect of excipient on rolipram encapsulation efficiency” value [3] was “did not significantly alter” and the “effect of excipient on fusion rate of DOPC/POPA FLVs-rolipram to MAECs” value [4] was “enhanced the fusion rate”.
With `CCCC(=O)Nc1ncnc2c1ncn2[C@@H]1O[C@@H]2COP(=O)(O)O[C@H]2[C@H]1OC(=O)CCC` [dbcAMP] the “LPS mediated TNF expression” value [5] was “abrogated”.
In the case of `COc1ccc(C2CNC(=O)C2)cc1OC1CCCC1` (stereo not drawn) [rolipram, 4-(3-Cyclopentyloxy-4-methoxy-phenyl) pyrrolidin-2-one], the “TNF mRNA” value ([6]; human PBMCs stimulated with LPS, data not shown) is reported as “significantly downregulated”, the TNF protein ([6]; human PBMCs, rolipram 1, 5, 10 μM 30 min, LPS 1 μg/ml 6 h, ELISA, dose-dependent) is reported as “significantly downregulated” and the mean anesthesia time [7] is reported as 48.6 ± 5.5 min. The “protection against cholestatic liver injury and fibrosis” value [8] was “significant protection”.
For sucrose acetate isobutyrate [SAIB], the “effect of excipient on rolipram encapsulation efficiency” value [3] was “did not significantly alter”, the TNF production [9] was “reduced the effect of LPS” and the “effect of excipient on fusion rate of DOPC/POPA FLVs-rolipram to MAECs” value [4] was “appeared to decrease the fusion rate”.

Source: patent US20190275003A1, “ENCAPSULATION OF PHOSPHODIESTERASE INHIBITORS TO TREAT ALCOHOLIC LIVER DISEASE” (University of Louisville Research Foundation, Inc., priority 2016, published 2019)
